The subject of one data set is selected transcripts. Briefly: Salmon calcitonin/PTS893 monkey study: real-time PCR of selected transcripts. The format is in vivo, cynomolgus monkeys (Macaca fascicularis). To be noted: normalized to β-actin. The text has this: Based on the DNA microarray data a set of transcripts was chosen for quantitative analysis by real time-PCR(RT-PCR).
Briefly, the method exploits the SyBr Green dye which intercalates into double stranded DNA. Accumulation of PCR products is detected directly by monitoring the increase in fluorescence of the SyBr Green dye. Reactions are characterised by the point in time during cycling when amplification of a PCR product is first detected rather than the amount of PCR product accumulated after a fixed number of cycles. The higher the starting copy number of nucleic acid target, the sooner a significant increase in fluorescence is observed.
From each RNA sample, cDNA was made using an Applied Biosystem kit (Applied Biosystems # N808-0234) following the recommendation of the manufacturer. The PCR mixture was prepared using the SyBr Green Universal PCR Master Mix (Applied Biosystems #4309155) as follows: 5 μl cDNA template, 400 nM of each primer, 0.2 mM deoxynucleotide triphosphates, 1 mM MgC12 and 0.5 U Taq DNA polymerase, 5 μl SyBr Green PCR buffer and RNase free water up to a final volume of 50 μl. The PCR was performed using the ABI Prism 7700 Sequence Detection System, after a step at 95° C. for 10 min, the step-cycle program was performed for a total of 40 cycles as follows: 95° C. for 30 s, 60° C. for 1 min. A negative control was included: PCR reaction mixture with water in place of the cDNA sample.
The initial template concentration was determined based on the threshold cycle. […] Quantification was performed by calculating the unknown target concentration relative to an absolute standard and by normalizing to a validated endogenous control such as a housekeeping gene (β-actin). Results are presented as percentage of control, once the ratio between the numbers of molecule for the gene of interest divided by the number of molecule for beta-actin has been calculated.
Based on the DNA microarray data the following set of transcripts was chosen for quantitative analysis by RT-PCR: adhesion receptor CD44, angiopoietin, bone morphogenetic protein 5, carbonic anhydrase II, cartilage oligomeric matrix protein, cathepsin K, osteopontin, pre-pro-alpha-2 type I collagen, Spi-B and Y-box binding protein.

Data set [1] can be described thus: Salmon calcitonin/PTS893 monkey study: urinalysis. To be noted: urine.
Data set [2] concerns transcript levels in several organs. The experiment in a line: In vivo gene expression profiling screen of peptides in mice (Example I). To be noted: administration to mice. Here is the method: In this EXAMPLE, 100 unknown chemically synthesized peptides are functionalized using the discovery method of the invention. Most of these peptides are present in human plasma.
As a control, twenty reference drugs are concurrently investigated with the discovery method of the invention. For this screening, one control and four treated groups of six males are treated for two weeks by daily administration by the subcutaneous route of the proteins. The reference drugs can be active for treating conditions in the areas of glaucoma, neuroprotection, neovascularisation, antiangiogenesis, acne, asthma and allergy, cardiovascular diseases, neurological disorder, pain, diabetes, hypercholesterolemia, osteoporosis and oncology.
The expectations from those selected active peptides are that (a) several potential therapeutic drugs could be identified; (b) target peptides for therapeutic antibodies could be identified; (c) new targets for research, deduced from the reconstructed biochemical pathways, could be identified; and (d) biomarkers, to be used to develop diagnostic tests could be identified. […] The protein/peptide selection rate is approximately 20%. The selection/prioritization criteria are the type of activity, the therapeutic interest and the suspected toxicity.

[3] abbreviates: female monkeys, day 13 of dosing.
Setting [4] is: female monkeys, day −7 relative to start of dosing.
The mark [5] stands for this setting: female monkeys, day −8 relative to start of dosing.
[6] abbreviates: male monkeys, day −5 relative to start of dosing.
[7] abbreviates: male monkeys, day −6 relative to start of dosing.

Several values for one entry are separate records, joined by “and”; a condition that tells them apart may be missing. Equal entries are not always repeated.

Turning to “Leu8, Asp10, Lysll, A1a16, G1n18, Thr33, A1a34 human PTH 1-34 [PTS893, Leu8, Asp10, Lysll, A1a16, G1n18, Thr33, A1a34 human PTH 1-34 [hPTH(1-34)]]”, the “Real Time PCR Treatment Effect: Y-box binding protein (bone) (36140_at)” value in the data set with selected transcripts (bone) is recorded as “+26 % respect to control”. Moreover, in the data set with selected transcripts, the “Real Time PCR Treatment Effect: Spi-B (35883_at)” value is recorded as −18 % respect to control, the “Real Time PCR Treatment Effect: adhesion receptor CD44 (1372_at)” value is listed as “No change”, the “Real Time PCR Treatment Effect: angiopoietin-1 (1929_at)” value was “No change” and the “Real Time PCR Treatment Effect: bone morphogenetic protein 5 (1831_at)” value is given as “+18 % respect to control”. Besides, in the data set on selected transcripts, the “Real Time PCR Treatment Effect: carbonic anhydrase II (40095_at)” value was “No change”, the “Real Time PCR Treatment Effect: cartilage oligomeric matrix protein (40161_at)” value is recorded as “No change”, the “Real Time PCR Treatment Effect: cathepsin K (128_at)” value is on record as “No change” and the “Real Time PCR Treatment Effect: osteopontin (2092_s_at)” value is reported as “No change”. For the same molecule, the “Real Time PCR Treatment Effect: pre-pro-alpha-2 type I collagen (32306_g_at)” value in the data set on selected transcripts was “+62 % respect to control”. Further, in data set [1] (setting [3]), the CREAT is 5620 µmol/L and 8060 µmol/L; the “Ca2+” value is 20.05 mmol/L and 12.35 mmol/L; the “Cl−” value is 101 mmol/L and 133 mmol/L; the D-PYR is 1356 nmol/L and 2036 nmol/L. In addition, in data set [1] (setting [3]), the LDH was 10.0 IU/L and 9.0 IU/L; the “Mg2+” value is 6.90 mmol/L and 5.90 mmol/L; the NTx/Crea is 447 nME/mM and 705 nME/mM; the Pyr/Crea was 241 nM/mM and 253 nM/mM. Moreover, the VOLUME in data set [1] (setting [3]) is 52 mL and 42 mL. In data set [1] (setting [4]), the NTx/Crea is 576 nME/mM and 634 nME/mM; the Pyr/Crea was 163 nM/mM and 181 nM/mM. In addition, in data set [1] (setting [5]), the CREAT was 19160 µmol/L and 14060 µmol/L; the “Ca2+” value was 11.50 mmol/L and 6.60 mmol/L; the “K+” value is 302 mmol/L and 164 mmol/L; the LDH is 11.0 IU/L and 18.0 IU/L. In data set [1] (setting [5]), the “Mg2+” value is 7.35 mmol/L and 4.00 mmol/L; the “Na+” value was 145 mmol/L and 118 mmol/L. In data set [1] (male monkeys, day 13 of dosing), the “Ca2+” value was 7.55 mmol/L and 13.10 mmol/L; the I.PHOS is 0.10 mmol/L and 0.17 mmol/L; the “K+” value was 107 mmol/L and 69 mmol/L; the LDH is 14.0 IU/L and 19.0 IU/L. Besides, in data set [1] (male monkeys, day 13 of dosing), the “Mg2+” value is 8.70 mmol/L and 5.25 mmol/L; the NAG was 2.9 IU/l and 2.6 IU/l; the NTx/Crea was 621 nME/mM and 547 nME/mM; the Pyr/Crea is 214 nM/mM and 204 nM/mM. For the same molecule, in data set [1] (setting [6]), the CREAT was 16160 µmol/L and 16120 µmol/L; the CTx was 11865 µg/L and 20108 µg/L; the D-PYR is 1660 nmol/L and 2278 nmol/L; the NTx was 5403 nM BCE and 8757 nM BCE. Besides, in data set [1] (setting [6]), the NTx/Crea is 334 nME/mM and 543 nME/mM; the Pyr/Crea is 103 nM/mM and 141 nM/mM. For the same molecule, in data set [1] (setting [7]), the CREAT was 16160 µmol/L and 9940 µmol/L; the “Ca2+” value was 5.10 mmol/L and 3.50 mmol/L; the “K+” value was 86 mmol/L and 125 mmol/L; the LDH was 7.0 IU/L and 9.0 IU/L.

B1: FGF23CTP: unique 75-mer COOH-terminal peptide of FGF-23, SEQ ID NO: 2 (peptide, listed as Homo sapiens)
chain: HTRSAEDDSERDPLNVLKPRARMTPAPASCSQELPSAEDNSPMASDPLGVVRGGRVNTHAGGTGPEGCRPFAKFI
Turning to B1, the “Transcript level changes in several organs (activity)” value in data set [2] is “active”.
